Measurements reported in patent US8895568B2, “Compositions comprising substituted pteridines as agrochemicals” (Dow AgroSciences LLC, priority 2009, dated 2014).
Like-named read-outs stand apart in the source and are kept apart here.

Legend:
Assay type in all cases: in vivo
[1] = test system: Colletotricum lagenarium; test: Cucumber Anthracnose (COLLLA), foliar spray, percent disease control
[2] = test system: Pseudoperonospora cubensis; test: Cucumber Downy Mildew (PSPECU), foliar spray, percent disease control; details: read-out: PSPECU percent control
[3] = test system: Cochliobolus sativus; test: Spot Blotch of Wheat (COCHSA), foliar spray, percent disease control; details: Bipolaris sorokiniana, read-out: COCHSA percent control
[4] = test system: DROSME, AEDSAE, LAPHEG, or HELIVI; test: Insecticidal activity, active if any of DROSME, AEDSAE, LAPHEG or HELIVI was controlled at 80% or more; details: read-out: >80% mortality on any insect species @ 4000 ppm

SMILES | pest or weed control at 200 µg/mL ([1]; foliar) [%] | pest or weed control at 200 µg/mL ([2]; foliar) [%] | pest or weed control at 200 µg/mL ([3]; foliar) [%] | pest or weed control at 4000 ppm [4] [%] | pest or weed control at 200 µg/mL ([1]; foliar spray) [%] | pest or weed control at 200 µg/mL ([2]; foliar spray) [%] | pest or weed control at 200 µg/mL ([3]; foliar spray) [%]
Fc1cc(Oc2ncc(C(F)(F)F)cc2F)ccc1CCNc1ncnc2nccnc12 [Compound 114] | 0 to 49 | 80 to 100 | 0 to 49 | > 80 |  |  | 
O=C(c1ccc(Oc2ccc(CCNc3ncnc4nccnc34)cc2)nc1)C1CC1 [Compound 30] | 0 to 49 | 50 to 79 | 0 to 49 | > 80 |  |  | 
FC(F)(F)c1ccc(Oc2ccc(CCNc3ncnc4nccnc34)cn2)cc1 [Compound 126] | 80 to 100 | 80 to 100 | 0 to 49 | > 80 |  |  | 
Fc1cc(C(F)(F)F)cnc1Oc1ccc(CCNc2ncnc3ncc(Cl)nc23)cc1 [Compound 118] | 0 to 49 | 0 to 49 | 0 to 49 | > 80 |  |  | 
Cc1nc2ncnc(NCCc3ccc(Oc4cc(C(F)(F)F)ccn4)cc3)c2nc1C [Compound 162] | 0 to 49 | 80 to 100 | 0 to 49 | > 80 |  |  | 
Cc1cc(CCNc2ncnc3nccnc23)ccc1Oc1ccc(C(F)(F)F)cn1 [Compound 141] | 50 to 79 | 80 to 100 | 0 to 49 | > 80 |  |  | 
CCOc1cc(CCNc2ncnc3nccnc23)ccc1Oc1cc(C(F)(F)F)ccn1 [Compound 153] | 0 to 49 | 80 to 100 | 0 to 49 | > 80 |  |  | 
Cc1cnc2ncnc(NCCc3ccc(Oc4ncc(C(F)(F)F)cc4F)cc3)c2n1 [Compound 53] | 80 to 100 | 80 to 100 | 0 to 49 | > 80 |  |  | 
c1ccc(COc2ccc(CCOc3ccc(CCNc4ncnc5nccnc45)cc3)cc2)cc1 [Compound 140, (2-{4-[2-(4-Benzyloxy-phenyl)-ethoxy]-phenyl}-ethyl)-pteridin-4-yl-amine] | 50 to 79 | 80 to 100 | 0 to 49 | > 80 |  |  | 
Fc1cc(CCNc2ncnc3nccnc23)ccc1Oc1cc(C(F)(F)F)ccn1 [Compound 93] | 80 to 100 | 80 to 100 | 50 to 79 | > 80 |  |  | 
Cc1c(CCNc2ncnc3nccnc23)ccc(Oc2cc(C(F)(F)F)ccn2)c1C [Compound 145] | 50 to 79 | 80 to 100 | 0 to 49 | > 80 |  |  | 
Cc1cc(CCNc2ncnc3nccnc23)ccc1Oc1cc(C(F)(F)F)ccn1 [Compound 109] | 50 to 79 | 80 to 100 | 0 to 49 | > 80 |  |  | 
FC(F)(F)c1ccnc(Oc2ccc(CCNc3ncnc4ncc(Cl)nc34)cc2)n1 [Compound 75] | 0 to 49 | 0 to 49 | 0 to 49 | > 80 |  |  | 
CC(C)c1ccnc(Oc2ccc(CCNc3ncnc4nccnc34)cc2)c1 [Compound 203] |  |  |  | > 80 | 50 to 79 | 80 to 100 | 0 to 49
FC(F)(F)c1cccnc1Oc1ccc(CCNc2ncnc3nccnc23)cc1 [Compound 60] | 50 to 79 | 80 to 100 | 0 to 49 | > 80 |  |  | 
COc1cc(CCNc2ncnc3nccnc23)ccc1Oc1ccc(C#N)cn1 [Compound 50] | 0 to 49 | 80 to 100 | 0 to 49 | > 80 |  |  | 
COc1ccnc(Oc2ccc(CCNc3ncnc4nccnc34)cc2)c1 [Compound 95] | 80 to 100 | 80 to 100 | 0 to 49 | > 80 |  |  | 
Cc1nnsc1Oc1ccc(CCNc2ncnc3nccnc23)cc1 [Compound 59] | 0 to 49 | 0 to 49 | 0 to 49 | > 80 |  |  | 
Cc1c(CCNc2ncnc3nccnc23)ccc(Oc2ccc(C(F)(F)F)cn2)c1C [Compound 144] | 0 to 49 | 80 to 100 | 0 to 49 | > 80 |  |  | 
CC(C)c1ccc(Oc2ccc(CCNc3ncnc4nccnc34)cc2)cc1 [Compound 132, {2-[4-(4-Isopropylphenoxy)-phenyl]-ethyl}-pteridin-4-yl-amine] | 0 to 49 | 80 to 100 | 0 to 49 | > 80 |  |  | 
Fc1cccc(Oc2ccc(CCNc3ncnc4nccnc34)cc2)n1 [Compound 7, {2-[4-(6-Fluoropyridin-2-yloxy)-phenyl]-ethyl}-pteridin-4-ylamine] | 0 to 49 | 80 to 100 | 0 to 49 | > 80 |  |  | 
Fc1cnc(Oc2ccc(CCNc3ncnc4nccnc34)cc2)c(F)c1 [Compound 107] | 0 to 49 | 80 to 100 | 0 to 49 | > 80 |  |  | 
CC(C)(C)OC(=O)c1ccc(Oc2ccc(CCNc3ncnc4nccnc34)cc2)nc1 [Compound 165] | 0 to 49 | 80 to 100 | 0 to 49 | > 80 |  |  | 
CC(F)(F)c1ccnc(Oc2ccc(CCNc3ncnc4nccnc34)cc2)c1 [Compound 44] | 50 to 79 | 80 to 100 | 0 to 49 | > 80 |  |  | 
Fc1c(F)c(C(F)(F)F)c(F)c(F)c1Oc1ccc(CCNc2ncnc3nccnc23)cc1 [Compound 112] | 0 to 49 | 80 to 100 | 0 to 49 | > 80 |  |  | 
CC(=O)Oc1cc(CCNc2ncnc3nccnc23)ccc1Oc1cc(C(F)(F)F)ccn1 [Compound 190, Acetic acid 5-[2-(pteridin-4-ylamino)-ethyl]-2-(4-trifluoromethylpyridin-2-yloxy)-phenyl ester] | 0 to 49 | 0 to 49 | 0 to 49 | > 80 |  |  | 
Cc1cnc2ncnc(NCCc3ccc(Oc4ccc(C(F)(F)F)cn4)cc3)c2n1 [Compound 41] | 50 to 79 | 80 to 100 | 0 to 49 | > 80 |  |  | 
FC(F)(F)c1ccncc1Oc1ccc(CCNc2ncnc3nccnc23)cc1 [Compound 111] | 50 to 79 | 80 to 100 | 0 to 49 | > 80 |  |  | 
Cc1nc2ncnc(NCCc3ccc(Oc4ncccc4C(F)(F)F)cc3)c2nc1C [Compound 200] |  |  |  | > 80 | 0 to 49 | 0 to 49 | 0 to 49
